According to patent US20100203156A1, “XENON AS A TREATMENT FOR HEMOGLOBINOPATHY” (priority 2009, published 2010):

How the values were obtained:
[1] = target: HbS (Homo sapiens, UniProt P68871+P69905, E7V); conditions: cited from earlier work
[2] = test system: spinal dorsal horn neurons; conditions: cited from earlier work; for nociception depending on age: various ages / the young
[3] = cited from earlier work
[4] = inhaled xenon; cited from earlier work
[5] = with oxygen, human adults; cited from earlier work
[6] = target: T1, hemoglobin (Homo sapiens, UniProt P68871+P69905); test: association rates of gases for hemoglobin; format: binding
[7] = target: T1, hemoglobin; conditions: cited from earlier work

Q: For `CC` [ethane], which “effect on HbS aggregation” value [1] is on record?
A: The value was “prevent and reverse HbS aggregation”.

Q: With `C` [methane] as the compound, how does the “effect on HbS aggregation” value [1] read?
A: The value was “prevent and reverse HbS aggregation”.

Q: For `[N-]=[N+]=O` [nitrous oxide], which “nociception depending on age” value [2] is on record?
A: Its value is “ineffective in the young”.

Q: For `CCC` [propane], which “effect on HbS aggregation” value [1] is on record?
A: The value was “prevent and reverse HbS aggregation”.

Q: What does the source list for `[Xe]` [xenon]?
A: analgesia to cold pain ([3]; human, in vivo): not to cold pain; analgesia to ischemic, electrical, mechanical, and heat stimulation ([3]; human, in vivo): produced analgesia; analgesic potency compared with nitrous oxide ([3]; human, in vivo): comparable or superior to nitrous oxide; response to experimentally induced, standardized forms of pain ([3]; inhaled dose of ~20%, healthy volunteers): significantly decrease the response; inhaled concentration at which nausea and vomiting has been observed [4]: > 30%; 1 MAC, inhaled fractional concentration [5]: 0.63-0.73; xenon association rate for hemoglobin relative to CO ([6]; versus CO): 10 times faster; xenon association rate for hemoglobin relative to O2 ([6]; versus O2): 1-2 times faster; xenon in blood carried by hemoglobin ([7]; during xenon inhalation, estimated): 45%; amount of xenon bound by reduced and oxyhemoglobin ([7]; reduced versus oxyhemoglobin): approximately the same; nociceptive responsiveness of spinal dorsal horn neurons ([2]; animal studies): directly inhibited; nociception depending on age [2]: reduce nociception at various ages
